# Assays:
# LOX IMVI = assay: panel of 60 human tumor cell lines, growth inhibition (Melanoma)
# SK-MEL-2 = assay: as above
# SK-MEL-28 = assay: as above
# SK-MEL-5 = assay: as above; details: for Percent Growth: 8K-MEL-5
# UACC-257 = assay: as above
# U251 = assay: panel of 60 human tumor cell lines, growth inhibition (CNS Cancer); details: for Percent Growth: U251
# RXF 393 = assay: panel of 60 human tumor cell lines, growth inhibition (Renal Cancer); details: for GI50: RXF 393, RXF 393; for Percent Growth: RXF 393
# BT-549 = assay: panel of 60 human tumor cell lines, growth inhibition (Breast Cancer); details: BT-549
smiles,measurement,setting,value
"C=C1C(=O)O[C@H]2[C@H]1CC/C(COC(=O)NCCc1ccccn1)=C\CC[C@@]1(C)O[C@@H]21 [JVM 61, ((1aR,7aS,10aS,10bS,E)-1a-methyl-8-methylene-9-oxo-1a,2,3,6,7,7a,8,9,10a,10b-decahydrooxireno[2′,3′:9,10]cyclodeca[1,2-b]furan-5-yl)methyl-(2-(pyridin-2-yl)ethyl)carbamate]",GI50,LOX IMVI; Homo sapiens,4.96 µM
same,GI50,"LOX IMVI; Homo sapiens, 5-dose assay",4.96 µM
same,CC50,"LOX IMVI; Homo sapiens, read-out: LC50",58.2 µM
same,IC (TGI),"LOX IMVI; Homo sapiens, read-out: TGI",19.4 µM
same,Percent Growth,LOX IMVI; Log10 Concentration −4.0,−75%
same,Percent Growth,LOX IMVI; Log10 Concentration −5.0,30%
same,Percent Growth,LOX IMVI; Log10 Concentration −6.0,96%
same,Percent Growth,LOX IMVI; Log10 Concentration −7.0,102%
same,Percent Growth,LOX IMVI; Log10 Concentration −8.0,99%
same,GI50,"SK-MEL-2; Homo sapiens, SK-MEL-2",15.1 µM
same,CC50,"SK-MEL-2; Homo sapiens, SK-MEL-2, read-out: LC50",69 µM
same,IC (TGI),"SK-MEL-2; Homo sapiens, SK-MEL-2, read-out: TGI",32.3 µM
same,Percent Growth,"SK-MEL-2; SK-MEL-2, Log10 Concentration −4.0",−74%
same,Percent Growth,"SK-MEL-2; SK-MEL-2, Log10 Concentration −5.0",77%
same,Percent Growth,"SK-MEL-2; SK-MEL-2, Log10 Concentration −6.0",112%
same,Percent Growth,"SK-MEL-2; SK-MEL-2, Log10 Concentration −7.0",110%
same,Percent Growth,"SK-MEL-2; SK-MEL-2, Log10 Concentration −8.0",109%
same,GI50,"SK-MEL-28; Homo sapiens, SK-MEL-28",5.25 µM
same,CC50,"SK-MEL-28; Homo sapiens, SK-MEL-28, read-out: LC50",45.5 µM
same,IC (TGI),"SK-MEL-28; Homo sapiens, SK-MEL-28, read-out: TGI",18.1 µM
same,Percent Growth,"SK-MEL-28; SK-MEL-28, Log10 Concentration −4.0",−93%
same,Percent Growth,"SK-MEL-28; SK-MEL-28, Log10 Concentration −5.0",32%
same,Percent Growth,"SK-MEL-28; SK-MEL-28, Log10 Concentration −6.0",96%
same,Percent Growth,"SK-MEL-28; SK-MEL-28, Log10 Concentration −7.0",96%
same,Percent Growth,"SK-MEL-28; SK-MEL-28, Log10 Concentration −8.0",104%
same,Percent Growth,SK-MEL-5; Log10 Concentration −4.0,−94%
same,Percent Growth,SK-MEL-5; Log10 Concentration −5.0,50%
same,Percent Growth,SK-MEL-5; Log10 Concentration −6.0,96%
same,Percent Growth,SK-MEL-5; Log10 Concentration −7.0,95%
same,Percent Growth,SK-MEL-5; Log10 Concentration −8.0,96%
same,GI50,"SK-MEL-5; Homo sapiens, SK-MEL-5",9.78 µM
same,CC50,"SK-MEL-5; Homo sapiens, SK-MEL-5, read-out: LC50",49.1 µM
same,IC (TGI),"SK-MEL-5; Homo sapiens, SK-MEL-5, read-out: TGI",22.1 µM
same,GI50,"UACC-257; Homo sapiens, UACC-257",4.59 µM
same,CC50,"UACC-257; Homo sapiens, UACC-257, read-out: LC50",53.7 µM
same,TGI,UACC-257; UACC-257,1.95E−5
same,Percent Growth,"UACC-257; UACC-257, Log10 Concentration −4.0",−81%
same,Percent Growth,"UACC-257; UACC-257, Log10 Concentration −5.0",33%
same,Percent Growth,"UACC-257; UACC-257, Log10 Concentration −6.0",83%
same,Percent Growth,"UACC-257; UACC-257, Log10 Concentration −7.0",92%
same,Percent Growth,"UACC-257; UACC-257, Log10 Concentration −8.0",97%
same,GI50,"U251; Homo sapiens, U-251",12.5 µM
same,CC50,"U251; Homo sapiens, U-251, read-out: LC50",55.6 µM
same,IC (TGI),"U251; Homo sapiens, U-251, read-out: TGI",25.4 µM
same,Percent Growth,U251; Log10 Concentration −4.0,−89%
same,Percent Growth,U251; Log10 Concentration −5.0,65%
same,Percent Growth,U251; Log10 Concentration −6.0,93%
same,Percent Growth,U251; Log10 Concentration −7.0,91%
same,Percent Growth,U251; Log10 Concentration −8.0,97%
same,GI50,RXF 393; Homo sapiens,2.22 µM
same,GI50,"RXF 393; Homo sapiens, 5-dose assay",2.22 µM
same,CC50,"RXF 393; Homo sapiens, RXF 393, read-out: LC50",45 µM
same,IC (TGI),"RXF 393; Homo sapiens, RXF 393, read-out: TGI",15.5 µM
same,Percent Growth,RXF 393; Log10 Concentration −4.0,−77%
same,Percent Growth,RXF 393; Log10 Concentration −5.0,2%
same,Percent Growth,RXF 393; Log10 Concentration −6.0,76%
same,Percent Growth,RXF 393; Log10 Concentration −8.0,101%
same,Percent Growth,BT-549; Log10 Concentration −4.0,−95%
same,Percent Growth,BT-549; Log10 Concentration −6.0,85%

# From US9469650B2, “Melampomagnolide B derivatives” (BOARD OF TRUSTEES OF THE UNIVERSITY OF ARKANSAS, priority 2013, dated 2016)
